Data: patent US8460900B2, “Methods to degrade sludge from pulp and paper manufacturing” (Buckman Laboratories International, Inc., priority 2010, dated 2013)

Tested on: CELLIC® CTec enzyme
Experiment: Cellulase activity of enzyme-surfactant solutions, carboxymethyl cellulose as substrate
Type: biochemical
Conditions: Table 3: 5 wt % surfactant + 10 wt % CELLIC CTec; for % Activity Increase: versus enzyme without surfactant; for Cellulase Activity (u/g): CMC substrate
Protocol: The experiments were set up for evaluating the effects of surfactants on enzymatic activity of CELLIC® CTec enzyme. The enzyme, surfactant, and water were mixed to form a solution containing 5 wt % surfactant and 10 wt % enzyme. For example, 1.0 g of CELLIC® CTec, 0.5 g of PLURONIC F108, and 8.5 g of deionized water were mixed to produce a solution containing 10 wt % enzyme and 5 wt % surfactant. The resulted enzyme-surfactant solutions were tested for cellulase activity. Carboxymethyl cellulose was used as the assay substrate. A control solution containing 10 wt % enzyme without surfactant was included for comparison.
Five PLURONIC surfactants with different HLB values are evaluated for their effects on the enzymatic activity of CELLIC® CTec in water solution. Each surfactant was mixed with the enzyme in water. The resulting solution was then assayed for cellulase activity using carboxymethyl cellulose (CMC) as the substrate. […] F108 enhanced the enzymatic activity by 22.3%.

% Activity Increase [%]	Cellulase Activity (u/g)	Substance
6.9	351.6	Cocobis(2-hydroxyethyl)methyl ammonium chloride
−2.3	321.5	Sorbitan mono-oleate [Sorbitan mono-oleate, non-ionic]
7.3	353.1	Sorbitan mono-oleate ester [Sorbitan mono-oleate ester, non-ionic]
